Data as given in patent US11351121B2, “Calcium alginate dosage formulations, and methods of making and using thereof” (Temple University—Of The Commonwealth System of Higher …, priority 2015, dated 2022).
Entries after “also recorded” stand apart in the source; their conditions may differ. One block for each compound: values may come before it.

Key:
[1] = Dissolution of formulations A-K: acid stage (0.1 N HCl two hours) then buffer stage; type: physicochemical; conditions: for T80: buffer stage pH 7.2 phosphate buffer after 0.1 N HCl two hours; for % released in acid stage: after two hours
Description: (§1) A dissolution study was performed on each of the different tablets to determine their dissolution profiles. Dissolution USP apparatus II (Paddle) was initially used. […] Rotation speed was 50 RPM and the temperature was 37.0±0.5° C. The dissolution media used was 900 ml of 0.1 N hydrochloric acid in each vessel. After 2 hours the dissolution media was changed to 900 ml of standard 50 mM pH 7.2 potassium phosphate buffer. A 1 ml sample was withdrawn at each time. The samples were analyzed by HPLC.
HPLC analysis: an Agilent 1100 series HPLC with auto-sampler and dual wavelength detector was used. The mobile phase was acetonitrile to water with 0.5% formic acid (60:50 v/v).
Methods: different formulations were developed. […] The ingredients of all the formulations were mixed with deionized water at room temperature. The basket method described in chapter two was used to fabricate the tablets. 2 or 1.5 ml of the gel was dispensed into the basket as indicated.
Release profiles of the tablets were investigated in different buffer capacities and pH values. The tablets were pretreated in the acid stage for two hours before transferring them to the buffer stage.

[2] = Drug loss during the cross-linking process; type: physicochemical; conditions: previous formulations (with glycerol, lactose, sucrose)
[3] = Dissolution of compressed caffeine tablets (Carver press, Minipress IIBD); type: physicochemical; conditions: compressed tablet with alginate film coating
Description: Coated Tablet Results: different weight gains were tested to try to achieve the delayed release profile.
Because it was somewhat more difficult to produce tablets with similar hardness on the Minipress using the formulation used on the Carver press, lactose was added to increase the hardness of the tablets.

[4] = cited from earlier work
[5] = Dissolution study of calcium alginate tablets, USP apparatus I (basket), 0.1 N HCl 2 hours then pH 7.2 phosphate buffer; type: physicochemical; conditions: after two hours
Description: Analysis: an Agilent 1100 series HPLC with autosampler and dual wavelength detector was used. The mobile phase was acetonitrile to water with 0.5% formic acid (60:50 v/v). The flow rate was 1.2 mL/min and the sample injection volume was 50 μL and the wavelength of detection was 214 nm. The column used was a 150 by 4.6 mm Eclipse Plus C18 column (Agilent).
as §1

[6] = Dissolution of calcium alginate tablets in different dissolution media (deionized water, EDTA, EDTA+CaCl2); type: physicochemical
Description: In order to investigate the role of solutes and pH of the media on the erosion process, calcium alginate tablets made with same formulation were treated in different dissolution media.
The dissolution of the drug from the Ca Alginate dosage form was dependent on two things. First the pH of the media had to be neutral or high. Second the media had to have the ability to complex with the Calcium in solution. […] The drug release at pH 7.2 in media with either EDTA or phosphate buffer was complete in 6 hours. Drug release in 0.1 N HCl was less than 5%.

[7] = poly(ethyloxaline)/PMAA matrix disks, 0.9% saline; cited from earlier work

Compound: O=C(O)c1ccccc1 [Benzoic acid, benzoic acid]
- drug load released during residence time in the acid stage ([1]; benzoic acid, previous formulations (with glycerol, lactose, sucrose)): more than 30%
- T80 ([1]; formulation B): 6.76 h
- released in the acid stage after two hours ([1]; formulation C): about 18%
- T80 ([1]; formulation C): 6.4 h
- % released in acid stage ([1]; formulation K): 7%
- erosion of tablets at pH 3 and pH 4 ([1]; formulation K, buffer stage): no erosion was detected
- erosion of tablets at pH 5 ([1]; formulation K, buffer stage): started to erode but at a slower rate compared to pH 7.2
- effect of higher buffer capacity on release rate ([1]; formulation K, 100 mM phosphate buffer, pH 7.2): minimum effect on the release rate
- effect of lower buffer capacity on drug release ([1]; formulation K, 25 and 10 mM phosphate buffer, pH 7.2): a slower drug release
- benzoic acid lost during the cross-linking process [2]: more than 30%

Compound: Cn1c(=O)c2c(ncn2C)n(C)c1=O [Caffeine, caffeine]
- caffeine release by 12 hours [3]: 80%
- time for which caffeine is retained [3]: up to 8 hours
- % released in acid stage ([1]; formulation K): 18%

- % released in acid stage ([1]; formulation K): 17%
Compound: COc1ccccc1OCC(O)CO (stereo not drawn) [Guaifenesin, guaifenesin]
- solubility [4]: highly soluble

- drug released in 0.1 N HCl media [5]: less than 5%
- T80 ([1]; formulation B): 4.8 h
- T80 ([1]; formulation C): 6.71 h
- % released in acid stage ([1]; formulation K): <1%
- time to complete drug release ([6]; pH 7.2 media with either EDTA or phosphate buffer): 6 h
- drug release in 10 mM EDTA dissolution medium ([6]; tablets with 1 g stearic acid, 1 molar CaCl2 3 minutes, 10 mM EDTA): Complete drug release
- erosion or release in EDTA solution treated with calcium chloride ([6]; tablets with 1 g stearic acid, 1 molar CaCl2 3 minutes, 10 mM EDTA+30 mM CaCl2): No erosion or release
Compound: CC(C)Cc1ccc(C(C)C(=O)O)cc1 (stereo not drawn) [Ibuprofen, ibuprofen]
- release of the drug in pH 7.2 deionized water ([6]; calcium alginate tablets, pH 7.2 deionized water): no significant release; also recorded: no drug release

Compound: insulin: regular zinc insulin in a poly(ethyloxaline)/PMAA matrix (Kwon et al.)
- insulin released during the 3 days equilibrium period in saline [7]: less than 4 % of the initial insulin load
